Like-named read-outs stand apart in the source and are kept apart here.
What was measured:
[1] = biological target: T1, rAaChE1 (recombinant AaChE1, A. americanum cholinesterase 1); assay: cholinesterase inhibition assay, absorbance at […] nm; assay type: biochemical, Amblyomma americanum; design: unit not given here; settings: 15 min preincubation, culture supernatant
T1 construct: pBlueBac4.5/V5-His in Sf21 cells (reverse primer appears to carry the native stop codon); unpurified culture supernatant

[2] = test system: T1, rAaChE1 (recombinant AaChE1, A. americanum cholinesterase 1); assay: cholinesterase assay, absorbance at […] nm, microplate; assay type: biochemical, Amblyomma americanum; settings: culture supernatant of baculovirus-infected Sf21 cells

Compound | (IC50) ^2 / rAaChE1 (ATCh Substrate) ([1]; covalent) | also measured
CNC(=O)Oc1ccc2c(c1)[C@]1(C)CCN(C)[C@@H]1N2C [Eserine] | 2.28 × 10^−10 (2.37–3.26 × 10^−10) | –
CCCC(=O)SCC[N+](C)(C)C [BuTCh, butyrylthiocholine] | – | Km ([2]; read-out: apparent KM): 14.2 µM
CC(C)NP(=O)(NC(C)C)OP(=O)(NC(C)C)NC(C)C [Iso-OMPA] | 3.48 × 10^−05 (2.76–4.43 × 10^−5) | –
CC(=O)SCC[N+](C)(C)C [ATCh, acetylthiocholine] | – | Km ([2]; read-out: KM): 6.39 µM
C=CC[N+](C)(C)c1ccc(CCC(=O)CCc2ccc([N+](C)(C)CC=C)cc2)cc1 [BW284c51, 1,5-Bis(4-allyldimethylammoniumphenyl)pentan-3-one dibromide] | – | (IC50) ^2 / rAaChE1 (ATCh Substrate) [1]: 2.96 × 10^−7 (2.50–3.50 × 10^−7)
CCOP(=O)(OCC)Oc1ccc2c(C)c(Cl)c(=O)oc2c1 [Coroxon] | 2.35 × 10^−11 (1.93–2.84 × 10^−11) | –
CCOC(=O)CC(SP(=O)(OC)OC)C(=O)OCC (stereo not shown) [Malaoxon] | 2.77 × 10^−8 (2.45–3.14 × 10^−8) | –

Reference: PMC10178864, “Identification, Baculoviral Expression, and Biochemical Characterization of a Novel Cholinesterase of Amblyomma americanum (Acari: Ixodidae)” (International Journal of Molecular Sciences, 2023)
